A value given as a limit tells only on which side of the number the result lay.

One data set can be described thus: in vitro. To be noted: human.
In another data set the test system is HCV genotype 1b replicon. The data set is described as follows: microbe, parasite or virus in culture. Type of data set: cell-based. To be noted: Hepatitis C virus, 72 h, read-out: HCV Replicon EC50.
Data set [1] in a line: Cytotoxicity evaluation, CellTiter-Blue Cell Viability Assay. To be noted: human, Zluc cells (HCV replicon cells). A general note: The colour change of resazurin is a common sign of viable cells or microbes.

The compound `CCOc1nc(N)nc2c1ncn2[C@@H]1O[C@@H]2COP(=O)(Oc3cccc(OP4(=O)OC[C@H]5O[C@@H](n6cnc7c(OCC)nc(N)nc76)[C@](C)(O)[C@@H]5O4)c3)O[C@H]2[C@@]1(C)O` (stereo partly shown) [Compound 12] yielded a CC50 in the data set “in vitro” above 50 µM. Besides, the EC50 (commonly the concentration giving half of the maximal effect) in the data set on HCV genotype 1b replicon lay in the range of 0.25 to 1 µM.
`CCOc1nc(N)nc2c1ncn2[C@@H]1O[C@@H]2COP(=O)(NCCCCCCNP3(=O)OC[C@H]4O[C@@H](n5cnc6c(OCC)nc(N)nc65)[C@](C)(F)[C@@H]4O3)O[C@H]2[C@@]1(C)F` (stereo partly shown) [Compound 14]: in the data set on HCV genotype 1b replicon, the concentration for a half-maximal effect (EC50) was 1 to 10 µM. Further, the CC50 at 72 h in data set [1] was above 50 µM.
For the compound `CCOc1nc(N)nc2c1ncn2[C@@H]1O[C@@H]2COP(=O)(NCCNP3(=O)OC[C@H]4O[C@@H](n5cnc6c(OCC)nc(N)nc65)[C@](C)(F)[C@@H]4O3)O[C@H]2[C@@]1(C)F` (mixture of isomers) [Compound 3], the EC50 in the data set with HCV genotype 1b replicon fell in the range of 1 to 10 µM. In data set [1], the CC50 at 72 h was above 50 µM.
For `CCOc1nc(N)nc2c1ncn2[C@@H]1O[C@@H]2COP(=O)(Oc3cccc(OP4(=O)OC[C@H]5O[C@@H](n6ccc(OC)nc6=O)[C@](C)(F)[C@@H]5O4)c3)O[C@H]2[C@@]1(C)F` (stereo partly shown) [Compound 10], in the data set “in vitro”, the CC50 is above 50 µM. Further, in the data set on HCV genotype 1b replicon, the EC50 was below 0.25 µM.
The like results for `CCOc1nc(N)nc2c1ncn2[C@@H]1O[C@@H]2COP(=O)(OC3CCC(OP4(=O)OC[C@H]5O[C@@H](n6cnc7c(OCC)nc(N)nc76)[C@](C)(F)[C@@H]5O4)CC3)O[C@H]2[C@@]1(C)F` (stereo partly shown) [Compound 13] were, in that order, above 50 µM and 1 to 10 µM.
Take `CCOc1nc(N)nc2c1ncn2[C@@H]1O[C@@H]2COP(=O)(Oc3cccc(OP4(=O)OC[C@H]5O[C@@H](n6cnc7c(OCC)nc(N)nc76)[C@](C)(F)[C@@H]5O4)c3)O[C@H]2[C@@]1(C)O` (stereo partly shown) [Compound 9]: the CC50 in the data set “in vitro” is above 50 µM. Further, the EC50 with HCV genotype 1b replicon was below 0.25 µM.
The like results for `COc1nc(N)nc2c1ncn2[C@@H]1O[C@H](COP(=O)(NCCNP(=O)(OC[C@H]2O[C@@H](n3cnc4c(OC)nc(N)nc43)[C@](C)(O)[C@@H]2O)Oc2ccccc2)Oc2ccccc2)[C@@H](O)[C@@]1(C)O` (stereo partly shown) [Compound 6] were, in that order, above 50 µM and above 10 µM.
For `CCOc1nc(N)nc2c1ncn2[C@@H]1O[C@H](COP(=O)(Oc2ccccc2)N2CCN(P(=O)(OC[C@H]3O[C@@H](n4cnc5c(OC)nc(N)nc54)[C@](C)(O)[C@@H]3O)Oc3ccccc3)CC2)[C@@H](O)[C@@]1(C)F` (stereo partly shown) [Compound 4], in that order: above 50 µM and above 10 µM.
Take `CCOc1nc(N)nc2c1ncn2[C@@H]1O[C@H](COP(=O)(NCCNP(=O)(OC[C@H]2O[C@@H](n3cnc4c(OC)nc(N)nc43)[C@](C)(O)[C@@H]2O)Oc2ccccc2)Oc2ccccc2)[C@@H](O)[C@@]1(C)F` (stereo partly shown) [Compound 5]: the CC50 in “in vitro” is above 50 µM. The EC50 in the data set with HCV genotype 1b replicon was above 10 µM.
As for `CCOc1nc(N)nc2c1ncn2[C@@H]1OC(COP2(=O)OCC3(CO2)COP(=O)(OCC2O[C@@H](n4cnc5c(OCC)nc(N)nc54)[C@](C)(F)[C@@H]2O)OC3)[C@@H](O)[C@@]1(C)F` (stereo partly shown) [Compound 7], the CC50 in the data set “in vitro” is above 50 µM. The half-maximal effective concentration (EC50) with HCV genotype 1b replicon was above 10 µM.
For `CCOc1nc(N)nc2c1ncn2[C@@H]1O[C@@H]2COP(=O)(Oc3cccc(OP4(=O)OC[C@H]5O[C@@H](n6ccc(=O)[nH]c6=O)[C@](C)(F)[C@@H]5O4)c3)O[C@H]2[C@@]1(C)F` (stereo partly shown) [Compound 8], in that order: above 50 µM and below 0.25 µM.

For the origin of these results see patent publication US20140112886A1, “DINUCLEOTIDE COMPOUNDS FOR HCV INFECTION” (IDENIX PHARMACEUTICALS, INC., priority 2012, published 2014).
